Calls of active or inactive are those of the source.
Assays:
[1] = ZM109 Env clade C HIV-1 fusion inhibitors, dose response, HeLa effector, CEM target cells, luciferase, cherry-pick (AID 652058); type: functional, cell-based
[2] = CEM21 lymphoblast cell cytotoxicity, dose response, cytotoxicity control for viral fusion inhibitor project, CellTiter-Glo luminescence, cherry-picked (AID 652042); type: functional, cell-based;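 further: potency for signal decrease meaning cytotoxicity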
[3] = inhibitors of HIV Env-driven cell fusion, dose response, cherry-pick (AID 652057); type: functional, cell-based
[4] = inhibitors of clade B AD8 Env fusion, dose response, cell-based, cherry-pick (AID 652062); type: functional;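 further: luciferase signal from cell-cell fusion driven by HIV-1 clade B AD8 Env; potency is for inhibitors of fusion seen as a drop in luminescence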
[5] = off-target signal loss in HeLa-CEM21 co-culture – HeLa F-luc CTL cells, cherry-picked, counter-screen for HIV-1 Env fusion inhibitor project, dose response (AID 652040); type: functional, cell-based;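 further: potency for signal decrease marking cytotoxic or nonspecific inhibition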
[6] = T. cruzi growth inhibition in host cells, dose response, cell-based, plate reader, dry powder, set 2 (AID 652275); type: functional
[7] = target: T1, Trace amine-associated receptor 1 (Homo sapiens, UniProt Q96RJ0); assay: Counterscreen for agonists of the human trace amine associated receptor 1 (hTAAR1): Fluorescence-based cell-based high throughput dose response assay to identify hTAAR1 agonist that also desensitize TAAR1 receptor response.; type: functional
T1 sequence (Q96RJ0 whole entry): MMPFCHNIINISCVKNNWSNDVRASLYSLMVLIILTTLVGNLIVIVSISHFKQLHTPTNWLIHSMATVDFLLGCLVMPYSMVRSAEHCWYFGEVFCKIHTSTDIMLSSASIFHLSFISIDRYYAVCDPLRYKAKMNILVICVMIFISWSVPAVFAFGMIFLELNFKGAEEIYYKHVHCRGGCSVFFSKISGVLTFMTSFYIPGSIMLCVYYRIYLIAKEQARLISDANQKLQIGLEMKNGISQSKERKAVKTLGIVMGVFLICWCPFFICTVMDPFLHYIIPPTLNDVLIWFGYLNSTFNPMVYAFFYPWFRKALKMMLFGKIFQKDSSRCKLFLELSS

[8] = cells; type: functional, cell-based
[9] = cells; type: functional, cell-based; remark: listed apart in the source
[10] = target: T1, Trace amine-associated receptor 1; assay: Fluorescence-based cell-based high throughput dose response assay to identify agonists of the human trace amine associated receptor 1 (TAAR1).; type: functional
[11] = target: 1-phosphatidylinositol 4,5-bisphosphate phosphodiesterase beta-3 (Homo sapiens, UniProt Q01970); assay: Fluorescence-based biochemical high throughput dose response assay to identify inhibitors of phospholipase C isozymes (PLC-B3).
[12] = target: 1-phosphatidylinositol 4,5-bisphosphate phosphodiesterase gamma-1 (Homo sapiens, UniProt P19174); assay: Counterscreen for inhibitors of phospholipase C isozymes (PLC-B3): Fluorescence-based biochemical high throughput dose response assay to identify inhibitors of phospholipase C isozymes (PLC-gamma1).
[13] = Shn3 3'UTR reporter inhibitors, dose response, cell-based, Clone20 osteoblasts, firefly luciferase, cherry-picked (AID 624132); type: functional;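 further: firefly luciferase luminescence from reporter carrying the Shn3 3'UTR in osteoblasts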
[14] = system: HEK293; assay: inhibitors of LMP1-driven NF-kB reporter, dose response, cell-based, HEK293, luciferase, cherry-pick (AID 588343); type: functional; conditions: Homo sapiens
[15] = target: COUP transcription factor 2 (Homo sapiens, UniProt P24468); assay: Luminescence-based cell-based high throughput dose response assay to identify inhibitors of COUP-TFII (NR2F2).; type: functional;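 further: HEK293 cells transiently cotransfected with COUP-TFII expression vector and reporter; luciferase reporter luminescence driven by COUP-TFII from the pX2-168 reporter plasmid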
[16] = control 3'UTR Renilla luciferase suppression, dose response, counter-screen for Shn3 inhibitor project, cell-based, Clone20-Shn3RL, cherry-picked (AID 624133); type: functional
[17] = HepG2 cell cytotoxicity, dose response, cytotoxicity control for Shn3 inhibitor project, CellTiter-Glo, cherry-picked (AID 624134); type: functional, cell-based
[18] = HEK293 cell cytotoxicity, dose response, cytotoxicity control, cherry-picks, set 5 (AID 1053117); type: functional, cell-based
[19] = HEK293 cell cytotoxicity, dose response, cytotoxicity control, plate reader, cherry-picked samples (AID 743446); type: functional, cell-based
[20] = system: INS1; assay: beta cell apoptosis inhibitors, cytokine rescue, dose response, luminescence, retest (AID 449756); type: functional, cell-based; conditions: Rattus norvegicus;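 further: cell death triggered by IL-1 beta plus TNF-alpha plus IFN-gamma mixture; protective hits raise ATP signal compared with cytokine alone wells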
[21] = A549 cell cytotoxicity, dose response, cytotoxicity control, plate reader, cherry-pick, antagonist series (AID 743412); type: functional, cell-based
[22] = LGR2 antagonists, dose response, cell-based, HEK293, CRE-luciferase reporter, cherry pick, set 2 (AID 743343); type: functional;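 further: transfected cells were stimulated with diluted bursicon conditioned medium after compound addition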
[23] = HepG2 cell cytotoxicity, dose response, cytotoxicity control, plate reader, cherry-pick, antagonist series (AID 743416); type: functional, cell-based
[24] = system: HEK293; assay: cells; conditions: Homo sapiens
[25] = system: HEK293; assay: cells; conditions: Homo sapiens; remark: listed apart in the source
[26] = ADAM10 inhibitors, peptide cleavage, dose response, biochemical, QFRET (AID 743254);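 further: ADAM10 enzyme with the DM2 quenched FRET peptide as substrate; EDANS fluorescence gain as the protease cuts the substrate; inhibitor potency against ADAM10 proteolytic activity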
[27] = target: Disintegrin and metalloproteinase domain-containing protein 17 (Homo sapiens, UniProt P78536); assay: ADAM17 protease inhibitors, dose response, counter-screen for ADAM10 exosite inhibitor project, biochemical, quenched FRET substrate (AID 743253)
[28] = P. falciparum Dd2 growth inhibitors, dose response, SYBR Green, cherry-picked samples (AID 1159567); type: functional, cell-based
[29] = P. falciparum ATP4 D1247Y mutant growth inhibitors, dose response, NITD609-resistant line, SYBR Green, dry powder (AID 1159571); type: functional, cell-based;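 further: parasites synchronized at ring stage by sorbitol before testing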
[30] = HepG2 cell cytotoxicity, dose response, cytotoxicity control, plate reader, dry powder samples (AID 1159569); type: functional, cell-based;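 further: inhibitor potency with signal falling toward the positive control level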
[31] = P. falciparum Dd2 growth inhibitors, dose response, SYBR Green, dry powder samples (AID 1159566); type: functional, cell-based;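 further: potency for growth inhibition with lower SYBR green DNA signal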
[32] = P. falciparum 3D7-ScDHODH growth inhibitors, dose response, SYBR Green, dry powder samples (AID 1159570); type: functional, cell-based;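 further: parasite growth measured after 72 hours of compound exposure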
[33] = target: Large T antigen (Simian virus 40, UniProt P03070); type: functional, Betapolyomavirus macacae;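 further: Confirmatory-stage PubChem screen for compounds that inhibit SV40 T antigen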
[34] = target: NAD-dependent protein deacylase sirtuin-5, mitochondrial (Homo sapiens, UniProt Q9NXA8); assay: SIRT5 desuccinylase inhibitors, dose response, biochemical, fluorescence imaging, cherry-pick, set 5 (AID 720591);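 further: desuccinylation of succinyl peptide AMC substrate read as fluorescence after trypsin release; potency of inhibitors that lower fluorescence and may act on trypsin instead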
[35] = cells; conditions: A549
[36] = target: T2, Zinc finger protein mex-5 (Caenorhabditis elegans, UniProt Q9XUB2); assay: MEX-5/TCR-2 RNA interaction inhibitors, dose response, biochemical, C. elegans, fluorescence polarization (AID 1960)
T2 sequence (Q9XUB2 whole entry): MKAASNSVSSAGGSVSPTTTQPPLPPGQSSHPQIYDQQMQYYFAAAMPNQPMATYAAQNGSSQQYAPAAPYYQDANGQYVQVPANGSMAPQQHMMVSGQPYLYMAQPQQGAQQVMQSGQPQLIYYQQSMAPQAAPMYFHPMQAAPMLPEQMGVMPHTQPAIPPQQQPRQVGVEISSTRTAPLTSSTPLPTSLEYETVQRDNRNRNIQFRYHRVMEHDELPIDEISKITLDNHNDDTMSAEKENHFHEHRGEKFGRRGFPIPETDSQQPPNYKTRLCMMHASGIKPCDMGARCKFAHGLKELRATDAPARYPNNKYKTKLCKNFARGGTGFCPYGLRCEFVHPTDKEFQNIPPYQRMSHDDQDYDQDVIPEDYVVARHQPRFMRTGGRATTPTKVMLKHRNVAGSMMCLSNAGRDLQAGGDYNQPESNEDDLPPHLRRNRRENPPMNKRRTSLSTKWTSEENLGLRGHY

[37] = target: T3, RNA-binding protein pos-1 (Caenorhabditis elegans, UniProt G5EF15); assay: inhibitors of POS-1/mex-3 RNA binding, dose response, biochemical, fluorescence polarization (AID 1964);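 further: purified POS-1 fused to maltose binding protein made in E. coli; potency of compounds blocking POS-1 binding to fluorescent RNA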
T3 sequence (G5EF15 whole entry): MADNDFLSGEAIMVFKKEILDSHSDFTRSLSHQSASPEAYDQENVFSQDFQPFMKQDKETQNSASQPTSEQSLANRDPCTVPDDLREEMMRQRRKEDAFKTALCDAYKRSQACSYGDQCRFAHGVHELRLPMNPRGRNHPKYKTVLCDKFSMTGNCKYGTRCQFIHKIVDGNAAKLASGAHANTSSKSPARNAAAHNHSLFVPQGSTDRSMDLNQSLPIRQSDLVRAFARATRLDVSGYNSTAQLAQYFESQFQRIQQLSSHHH

[38] = MC4R antagonists, dose response, counter-screen for LGR2 antagonist project, cell-based, plate reader, cherry pick (AID 743444); type: functional;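 further: transfected HEK 293 cells stimulated with alpha-MSH peptide; potency of inhibitors of the alpha-MSH evoked signal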
[39] = cytotoxicity in HEK-293T cells, dose response, cytotoxicity control for TCR NF-kB inhibitor project, luminescence, T-cell screen hits (AID 489026); type: functional, cell-based;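 further: cells exposed to compound about 14 hours before the viability readout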
[40] = target: T4, Microphthalmia-associated transcription factor (Homo sapiens, UniProt O75030); assay: TRPM1 promoter luciferase signal decrease, dose response, MITF inhibitor project, cell-based, SK-MEL-5, cherry-picked, set 3 (AID 493073); type: functional
T4 sequence (O75030 whole entry): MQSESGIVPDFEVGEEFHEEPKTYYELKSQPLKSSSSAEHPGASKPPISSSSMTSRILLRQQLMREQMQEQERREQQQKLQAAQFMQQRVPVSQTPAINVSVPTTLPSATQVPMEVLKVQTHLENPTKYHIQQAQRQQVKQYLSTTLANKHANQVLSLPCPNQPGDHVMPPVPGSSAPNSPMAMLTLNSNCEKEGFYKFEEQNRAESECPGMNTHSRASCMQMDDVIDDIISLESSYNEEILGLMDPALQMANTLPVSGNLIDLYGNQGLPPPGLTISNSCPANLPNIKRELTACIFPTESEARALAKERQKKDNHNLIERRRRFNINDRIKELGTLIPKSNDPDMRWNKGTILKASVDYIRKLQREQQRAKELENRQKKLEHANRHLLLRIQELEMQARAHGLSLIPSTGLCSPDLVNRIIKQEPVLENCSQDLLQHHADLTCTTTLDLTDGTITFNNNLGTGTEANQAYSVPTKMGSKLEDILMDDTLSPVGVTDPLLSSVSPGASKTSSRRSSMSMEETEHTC

[41] = target: Tyrosyl-DNA phosphodiesterase 2 (Homo sapiens, UniProt O95551); assay: human TDP2 enzyme inhibitors, dose response, biochemical, epi absorbance, IC50 (AID 743297)
Tyrosyl-DNA phosphodiesterase 2, sequence (O95551 whole entry): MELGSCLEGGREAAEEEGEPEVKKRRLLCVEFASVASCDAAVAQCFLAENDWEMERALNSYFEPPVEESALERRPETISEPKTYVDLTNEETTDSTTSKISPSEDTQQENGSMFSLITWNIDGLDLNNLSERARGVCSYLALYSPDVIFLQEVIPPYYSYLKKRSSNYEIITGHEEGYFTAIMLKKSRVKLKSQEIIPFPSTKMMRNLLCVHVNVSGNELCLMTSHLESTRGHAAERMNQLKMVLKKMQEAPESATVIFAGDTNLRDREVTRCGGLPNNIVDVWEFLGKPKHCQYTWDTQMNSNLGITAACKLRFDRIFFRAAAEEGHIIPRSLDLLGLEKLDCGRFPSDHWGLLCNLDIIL

1-phosphatidylinositol 4,5-bisphosphate phosphodiesterase gamma-1, sequence (P19174 whole entry): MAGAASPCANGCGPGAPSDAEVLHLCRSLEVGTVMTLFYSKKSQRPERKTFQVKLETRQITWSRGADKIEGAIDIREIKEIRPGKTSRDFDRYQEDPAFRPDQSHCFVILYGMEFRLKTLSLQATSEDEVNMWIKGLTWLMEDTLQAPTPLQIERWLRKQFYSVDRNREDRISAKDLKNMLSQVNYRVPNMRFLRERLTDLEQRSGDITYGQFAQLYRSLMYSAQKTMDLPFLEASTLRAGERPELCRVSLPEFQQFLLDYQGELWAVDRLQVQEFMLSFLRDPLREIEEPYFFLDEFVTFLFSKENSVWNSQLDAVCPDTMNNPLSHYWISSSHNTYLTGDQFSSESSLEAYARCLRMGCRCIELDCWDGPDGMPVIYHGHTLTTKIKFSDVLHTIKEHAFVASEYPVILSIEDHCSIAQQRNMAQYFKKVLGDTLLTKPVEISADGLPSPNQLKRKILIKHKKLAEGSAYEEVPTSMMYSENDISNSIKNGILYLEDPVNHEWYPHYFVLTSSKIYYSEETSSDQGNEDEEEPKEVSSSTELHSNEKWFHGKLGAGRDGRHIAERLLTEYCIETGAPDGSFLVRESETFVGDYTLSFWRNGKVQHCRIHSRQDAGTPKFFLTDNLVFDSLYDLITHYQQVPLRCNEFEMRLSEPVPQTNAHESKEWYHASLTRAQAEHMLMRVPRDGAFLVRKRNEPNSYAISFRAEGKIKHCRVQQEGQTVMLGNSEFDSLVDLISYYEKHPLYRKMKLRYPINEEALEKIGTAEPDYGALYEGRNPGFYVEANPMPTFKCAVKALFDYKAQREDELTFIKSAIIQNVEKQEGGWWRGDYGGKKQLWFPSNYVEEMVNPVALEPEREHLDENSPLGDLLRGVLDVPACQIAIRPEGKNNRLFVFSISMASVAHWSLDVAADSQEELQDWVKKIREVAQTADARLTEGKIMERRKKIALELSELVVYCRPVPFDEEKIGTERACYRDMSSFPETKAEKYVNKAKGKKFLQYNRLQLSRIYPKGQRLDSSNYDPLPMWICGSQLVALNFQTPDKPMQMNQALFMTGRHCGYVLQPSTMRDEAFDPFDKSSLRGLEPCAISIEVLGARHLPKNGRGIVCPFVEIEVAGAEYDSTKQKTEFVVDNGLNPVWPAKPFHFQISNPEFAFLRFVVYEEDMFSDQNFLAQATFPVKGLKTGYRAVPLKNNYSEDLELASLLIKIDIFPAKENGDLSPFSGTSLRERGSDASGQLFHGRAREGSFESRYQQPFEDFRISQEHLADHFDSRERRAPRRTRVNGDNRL
1-phosphatidylinositol 4,5-bisphosphate phosphodiesterase beta-3, sequence (Q01970 whole entry): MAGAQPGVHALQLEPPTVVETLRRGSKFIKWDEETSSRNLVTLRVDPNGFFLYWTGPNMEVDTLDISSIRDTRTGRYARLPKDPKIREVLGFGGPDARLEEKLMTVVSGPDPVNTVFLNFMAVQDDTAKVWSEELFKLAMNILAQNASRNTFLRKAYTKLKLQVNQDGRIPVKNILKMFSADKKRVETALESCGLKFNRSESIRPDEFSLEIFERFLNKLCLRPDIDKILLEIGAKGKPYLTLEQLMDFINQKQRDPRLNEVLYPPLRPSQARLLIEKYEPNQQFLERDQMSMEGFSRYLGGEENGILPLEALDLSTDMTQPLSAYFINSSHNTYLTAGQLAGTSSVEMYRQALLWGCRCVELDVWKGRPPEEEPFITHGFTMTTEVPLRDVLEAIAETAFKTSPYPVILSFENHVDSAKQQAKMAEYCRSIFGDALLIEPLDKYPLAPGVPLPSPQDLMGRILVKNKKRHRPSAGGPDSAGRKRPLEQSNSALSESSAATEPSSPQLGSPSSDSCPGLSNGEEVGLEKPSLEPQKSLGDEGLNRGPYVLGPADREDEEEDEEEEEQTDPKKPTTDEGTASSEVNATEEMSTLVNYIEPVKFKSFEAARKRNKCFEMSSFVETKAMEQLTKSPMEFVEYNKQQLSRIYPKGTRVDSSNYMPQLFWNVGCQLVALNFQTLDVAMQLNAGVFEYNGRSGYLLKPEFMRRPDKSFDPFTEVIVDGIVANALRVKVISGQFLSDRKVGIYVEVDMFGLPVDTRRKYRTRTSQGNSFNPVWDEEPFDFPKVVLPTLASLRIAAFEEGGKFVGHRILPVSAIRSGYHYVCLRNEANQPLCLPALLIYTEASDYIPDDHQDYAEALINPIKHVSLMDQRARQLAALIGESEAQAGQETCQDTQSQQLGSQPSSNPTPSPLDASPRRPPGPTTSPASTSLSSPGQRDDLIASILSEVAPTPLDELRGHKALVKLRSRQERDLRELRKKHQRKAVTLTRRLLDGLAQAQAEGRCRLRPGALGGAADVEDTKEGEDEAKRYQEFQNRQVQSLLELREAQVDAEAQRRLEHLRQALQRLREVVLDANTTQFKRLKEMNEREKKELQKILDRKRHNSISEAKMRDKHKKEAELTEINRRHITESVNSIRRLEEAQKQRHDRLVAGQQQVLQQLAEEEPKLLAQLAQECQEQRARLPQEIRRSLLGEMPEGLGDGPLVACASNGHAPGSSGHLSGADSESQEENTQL
NAD-dependent protein deacylase sirtuin-5, mitochondrial, sequence (Q9NXA8 whole entry): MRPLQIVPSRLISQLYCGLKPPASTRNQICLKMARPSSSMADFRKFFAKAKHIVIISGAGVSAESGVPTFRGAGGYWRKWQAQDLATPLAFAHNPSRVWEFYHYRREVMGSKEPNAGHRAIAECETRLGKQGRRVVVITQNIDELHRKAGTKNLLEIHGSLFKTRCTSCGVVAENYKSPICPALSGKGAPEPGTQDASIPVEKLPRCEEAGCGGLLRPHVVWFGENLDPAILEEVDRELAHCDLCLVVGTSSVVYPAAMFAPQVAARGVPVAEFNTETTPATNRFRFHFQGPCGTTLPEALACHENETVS
Large T antigen, sequence (P03070 whole entry): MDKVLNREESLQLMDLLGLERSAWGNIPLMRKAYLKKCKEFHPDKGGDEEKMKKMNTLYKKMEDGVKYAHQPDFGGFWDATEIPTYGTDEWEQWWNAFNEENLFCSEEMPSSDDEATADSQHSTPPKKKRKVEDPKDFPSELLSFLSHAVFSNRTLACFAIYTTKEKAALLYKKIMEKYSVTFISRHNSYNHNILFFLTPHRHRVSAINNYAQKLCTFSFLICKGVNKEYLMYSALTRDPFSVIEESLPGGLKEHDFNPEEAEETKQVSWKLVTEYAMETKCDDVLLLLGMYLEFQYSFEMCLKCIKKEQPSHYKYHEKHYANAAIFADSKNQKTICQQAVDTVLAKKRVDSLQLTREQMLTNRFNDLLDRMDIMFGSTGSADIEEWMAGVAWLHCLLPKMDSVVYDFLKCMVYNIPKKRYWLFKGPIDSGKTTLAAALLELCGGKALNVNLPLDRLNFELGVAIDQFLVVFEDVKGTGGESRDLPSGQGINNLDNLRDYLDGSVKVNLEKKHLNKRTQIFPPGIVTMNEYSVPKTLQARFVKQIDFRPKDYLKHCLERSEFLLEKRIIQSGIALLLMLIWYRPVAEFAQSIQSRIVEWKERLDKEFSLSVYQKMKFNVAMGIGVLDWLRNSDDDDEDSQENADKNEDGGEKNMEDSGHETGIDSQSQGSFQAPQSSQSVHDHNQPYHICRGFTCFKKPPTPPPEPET
Disintegrin and metalloproteinase domain-containing protein 17, sequence (P78536 whole entry, the tested form may be a part): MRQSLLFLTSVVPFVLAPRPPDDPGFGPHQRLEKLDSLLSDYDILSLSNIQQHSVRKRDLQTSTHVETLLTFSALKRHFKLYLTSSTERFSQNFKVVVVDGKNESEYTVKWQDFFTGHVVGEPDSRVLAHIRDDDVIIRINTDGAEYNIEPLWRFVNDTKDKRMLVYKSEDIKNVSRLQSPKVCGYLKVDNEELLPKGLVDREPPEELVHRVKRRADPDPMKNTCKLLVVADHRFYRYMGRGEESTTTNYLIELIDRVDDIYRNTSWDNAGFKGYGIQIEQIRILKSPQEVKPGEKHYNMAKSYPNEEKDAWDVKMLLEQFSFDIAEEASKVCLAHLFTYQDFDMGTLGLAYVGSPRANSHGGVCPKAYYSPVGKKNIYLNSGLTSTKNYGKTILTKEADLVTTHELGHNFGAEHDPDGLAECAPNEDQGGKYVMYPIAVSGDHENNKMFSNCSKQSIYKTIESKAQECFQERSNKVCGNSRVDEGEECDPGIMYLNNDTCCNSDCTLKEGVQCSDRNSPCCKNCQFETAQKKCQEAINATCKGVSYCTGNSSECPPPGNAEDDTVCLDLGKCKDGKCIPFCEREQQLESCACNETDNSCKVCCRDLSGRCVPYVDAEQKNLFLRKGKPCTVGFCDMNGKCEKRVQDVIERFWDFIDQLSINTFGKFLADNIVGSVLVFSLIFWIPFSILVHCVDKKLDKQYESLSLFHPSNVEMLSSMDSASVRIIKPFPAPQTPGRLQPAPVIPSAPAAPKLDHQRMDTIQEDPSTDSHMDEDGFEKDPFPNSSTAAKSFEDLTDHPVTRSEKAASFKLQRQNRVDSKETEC

OCC1OC(n2ccc3c(NO)ncnc32)C(O)C1O (configuration not stated)
AC50 [1]: 2.44 µM (active)
AC50 [2]: 0.641 µM (active)
AC50 [3]: 2.35 µM (active)
AC50 [4]: 4.53 µM (active)
AC50 [5]: 2.65 µM (active)

CC(C)N1C[C@H](CNCc2ccc(Cl)cc2)Oc2c(NC(=O)c3ccncc3)cccc2C1=O
AC50 [6]: 0.731 µM (active)

COc1ccc2cc(CN(CCc3ccccc3)Cc3nnnn3CC3CCCO3)c(O)nc2c1 (configuration not stated)
IC50 [7]: 8.83 µM (active)
EC50 [8]: > 29.9 µM (inactive)
IC50 [9]: > 29.9 µM (inactive)
EC50 [10]: 4.42 µM (active)

COc1ccccc1COC(=O)c1cccc(S(=O)(=O)N2CCCC2)c1
IC50 [11]: > 123 µM (inactive)
IC50 [12]: > 123 µM (inactive)

COc1ccc(CNc2ncnc3ccccc23)cc1
AC50 [1]: 24.9 µM (active)
AC50 [13]: 0.674 µM (active)
AC50 [14]: 33.1 µM (active)
AC50 [3]: 36.2 µM (active)
AC50 [4]: 5.24 µM (active)
IC50 [15]: 10.7 µM (inactive)
AC50 [16]: 5.4 µM (active)
AC50 [17]: 3.67 µM (active)
AC50 [5]: > 70 µM (inactive)

C=CCC[C@H](Cc1ccc(F)cc1)C(=O)OC[C@H](Cc1c[nH]c2ccccc12)NC(=O)[C@@H](CC=C)CC(=O)N[C@@H](CO)Cc1ccccc1
AC50 [18]: > 52 µM (inactive)

CC(=O)c1ccc(Nc2cc(C)nc3c(C)cc(C)cc23)cc1
AC50 [19]: 23.9 µM (active)
AC50 [20]: 5.22 µM (active)
AC50 [21]: 2.54 µM (active)
AC50 [22]: 40.3 µM (active)
AC50 [23]: 1.9 µM (active)

CC(=O)Nc1ccc(N(CC(O)Cn2c3ccccc3c3ccccc32)S(=O)(=O)c2ccc(C)cc2)cc1 (configuration not stated)
AC50 [1]: 0.558 µM (active)
AC50 [2]: 28.4 µM (active)
AC50 [3]: 0.507 µM (active)
AC50 [4]: 2.8 µM (active)
EC50 [24]: > 59.7 µM (inactive)
EC50 [25]: > 59.7 µM (inactive)
AC50 [5]: 1.6 µM (active)

CN1C(=O)c2cc(NS(=O)(=O)c3ccc(F)cc3)ccc2OC[C@H]2O[C@@H](CC(=O)NCC(F)(F)F)CC[C@@H]21
IC50 [11]: 47.2 µM (inactive)
IC50 [12]: 45.1 µM (inactive)
IC50 [26]: > 69.6 µM (inactive)
IC50 [27]: > 69.6 µM (inactive)

C[C@@H]1CN([C@@H](C)CO)C(=O)c2c(c3ccccc3n2C)-c2ccccc2CO[C@@H]1CN(C)C(=O)Nc1cccc(Cl)c1Cl
AC50 [28]: 1.52 µM (active)
AC50 [29]: 0.572 µM (active)
AC50 [30]: 23.5 µM (active)
AC50 [31]: 0.85 µM (active)
AC50 [32]: 1.62 µM (active)

Oc1ccc(/C=N\Nc2cnnc(O)c2Cl)c(O)c1
IC50 [7]: 24.5 µM (inactive)
EC50 [8]: > 29.9 µM (inactive)
IC50 [33]: 15.7 µM (active)
IC50 [9]: > 29.9 µM (inactive)
EC50 [10]: 1.16 µM (active)

CC(C)(C)NC(=O)CSc1nc2cccnc2n1C1CCCCC1
AC50 [34]: > 30 µM (inactive)

O=C1c2ccccc2S(=O)(=O)c2cc(N3CCC(C(=O)N4CCCCC4)CC3)ccc21
AC50 [35]: > 52 µM (inactive)
EC50 [36]: > 300 µM (not active)
EC50 [37]: > 300 µM (not active)

CC(C)C[C@H](NC(=O)C1CCN(C(=O)[C@H](Cc2ccccc2)NC(=O)OC(C)(C)C)CC1)C(=O)O
AC50 [34]: > 30 µM (inactive)

CCn1c(C)cc(C(=O)CN2C(=O)c3ccccc3S2(=O)=O)c1C
AC50 [1]: 7.25 µM (active)
AC50 [38]: 1.16 µM (active)
IC50 [39]: > 80 µM (inactive)
AC50 [3]: 2.09 µM (active)
AC50 [4]: 0.358 µM (active)
AC50 [22]: 1.46 µM (active)
AC50 [40]: 1.99 µM (active)
AC50 [5]: 4.71 µM (active)

COC1=C(N2CCOCC2)C(=O)c2ccccc2C1=O
IC50 [41]: 77.2 µM (inactive)

— ChEMBL document CHEMBL1201862, “PubChem BioAssay data set” (2004)
